pIC50: −log10 of the molar value.
How the values were obtained:
MDA-361 cells [1] = test: Inhibition of calcium entry into MDA-361 cells; format: cell-based; settings: MDA361, NE = no effect at highest concentration of drug tested, read-out: Ca2+: IC50 for inhibition of calcium entry, MDA-361
Protocol: (§1) Cells were incubated in growth media containing 1 uM of the acetoxy-methyl ester of the Ca2+-sensitive fluorescent dye indo-1 (indo-1/AM; Molecular Probes, Eugene, Oreg.) for 1 h at 37° C. Cells were washed three times in buffer A [10 mM HEPES (pH 7.4), 1 mM MgCl2, 3 mM KCl, 1 mM CaCl2, 140 mM NaCl, 0.1% glucose, and 1% fetal bovine serum] and suspended to a final concentration of 10^6 cells/ml. Before stimulation, cells were warmed to 37° C. Changes in [Ca2+]i were monitored in an SLM 8100C spectrofluorimeter (SLM/Aminco; Urbana, Ill.) using previously published methods (Densmore, J. J., Haverstick, D. M., Szabo, G., and Gray, L. S. 1996. A voltage operable current is involved in activation-induced Ca^2+ entry in human lymphocytes whereas ICRAC has no apparent role. Am. J. Physiol. 271:C1494-C1503; Haverstick, D. M., Densmore, J. J., and Gray, L. S. 1998. Calmodulin regulation of Ca^2+ entry in Jurkat T cells. Cell Calcium 23:361-368).

MDA-435 cells [2] = test: Inhibition of calcium entry into MDA-435 cells; format: cell-based; settings: MDA435, NE = no effect at highest concentration of drug tested, read-out: Ca2+: IC50 for inhibition of calcium entry, MDA-435
Protocol: as §1

MDA-231 cells [3] = test: Inhibition of proliferation of MDA-231 cells; format: cell-based; settings: Homo sapiens, MDA-MB-231, NE = no effect at highest concentration of drug tested, read-out: prolif: IC50 for inhibition of proliferation, MDA-231
Jurkat cells [4] = test: Inhibition of calcium entry into Jurkat cells (indo-1 fluorescence); format: cell-based, human; settings: Homo sapiens; Jurkat; NE = no effect at highest concentration of drug tested; read-out: Ca2+: IC50 for inhibition of calcium entry, Jurkat
Protocol: as §1, with “8100C” left out, “([…].,” for “(Densmore, J. J., Haverstick, D. M.,”, “271:[…].,” for “271:C1494-C1503; Haverstick, D. M., Densmore, J. J.,”

MDA-231 cells [5] = test: Inhibition of calcium entry into MDA-231 cells; format: cell-based; settings: Homo sapiens, MDA-MB-231, NE = no effect at highest concentration of drug tested, read-out: Ca2+: IC50 for inhibition of calcium entry, MDA-231
Protocol: as §1

MDA-435 cells [6] = test: Inhibition of proliferation of MDA-435 cells; format: cell-based; settings: MDA435, NE = no effect at highest concentration of drug tested, read-out: prolif: IC50 for inhibition of proliferation, MDA-435
Jurkat cells [7] = test: Inhibition of proliferation of Jurkat cells; format: cell-based, human; settings: Jurkat
Protocol: (§2) Cancer cell lines were obtained from the American Type Culture Collection (Manassas, Va.). Cell lines were maintained in RPMI1640 supplemented with glutamine and 5% fetal bovine serum containing SerXtend (Irvine Scientific) when appropriate insulin, as directed by the ATCC. The fetal bovine serum used for culture was heat-inactivated by maintaining the serum at 56° C. for 1 h. Cell lines used were a T celleukemia (Jurkat), prostate cancer (PC3, DU145, LNCAP), breast cancer (MDA468, MDA361, MCF7), pancreatic cancer (MIA PaCa2), liver cancer (Hep G2), lung cancer (A549, NCl H460), colon cancer (HT29, HCT 116), and ovarian cancer (SK-OV-3).
(§3) LNCaP cells at 2.5×10^4 cells/well or PC-3 cells at 5×10^4 cells/well, both in a final volume of […], were plated in triplicate in standard flat-bottomed 96-well tissue culture plates in the presence of drug or vehicle (DMSO). Unless otherwise indicated, cells were grown for 48 h at 37° C. in a CO2 incubator. Relative cell growth was determined with the CellTiter 96 aqueous cell proliferation assay (Promega, Madison, Wis.) as described by the manufacturer using an automated plate reader. Results were calculated in a blinded fashion and are the means of triplicate determinations.

LNCaP cells [8] = test: Inhibition of proliferation of LNCaP cells; format: cell-based; settings: Homo sapiens, NE = no effect at highest concentration of drug tested, read-out: prolif: IC50 for inhibition of proliferation, LNCaP
Protocol: as §2, §3

PC3 cells [9] = test: Inhibition of proliferation of PC3 cells; format: cell-based, human
Protocol: as §2, §3

LNCaP cells [10] = test: Inhibition of calcium entry into LNCaP cells; format: cell-based; settings: Homo sapiens, NE = no effect at highest concentration of drug tested, read-out: Ca2+: IC50 for inhibition of calcium entry, LNCaP
Protocol: as §1

PC3 cells [11] = test: Inhibition of calcium entry into PC3 cells; format: cell-based; settings: Homo sapiens, PC-3, NE = no effect at highest concentration of drug tested, read-out: Ca2+: IC50 for inhibition of calcium entry, PC3
Protocol: as §1

MDA-361 cells [12] = test: Inhibition of proliferation of MDA-361 cells; format: cell-based; settings: MDA361, NE = no effect at highest concentration of drug tested, read-out: prolif: IC50 for inhibition of proliferation, MDA-361
Protocol: as §2, §3

[13] = molecular target: T1, α1H isoform of T type Ca2+ channels (Homo sapiens, UniProt O95180); test: Inhibition of Ca2+ current through transfected α1H channels; format: cell-based; settings: FIG. 7
T1 construct: expressed in transfected cells; host or cells: HEK293 (stably transfected)
T1 sequence (O95180 whole entry, canonical isoform): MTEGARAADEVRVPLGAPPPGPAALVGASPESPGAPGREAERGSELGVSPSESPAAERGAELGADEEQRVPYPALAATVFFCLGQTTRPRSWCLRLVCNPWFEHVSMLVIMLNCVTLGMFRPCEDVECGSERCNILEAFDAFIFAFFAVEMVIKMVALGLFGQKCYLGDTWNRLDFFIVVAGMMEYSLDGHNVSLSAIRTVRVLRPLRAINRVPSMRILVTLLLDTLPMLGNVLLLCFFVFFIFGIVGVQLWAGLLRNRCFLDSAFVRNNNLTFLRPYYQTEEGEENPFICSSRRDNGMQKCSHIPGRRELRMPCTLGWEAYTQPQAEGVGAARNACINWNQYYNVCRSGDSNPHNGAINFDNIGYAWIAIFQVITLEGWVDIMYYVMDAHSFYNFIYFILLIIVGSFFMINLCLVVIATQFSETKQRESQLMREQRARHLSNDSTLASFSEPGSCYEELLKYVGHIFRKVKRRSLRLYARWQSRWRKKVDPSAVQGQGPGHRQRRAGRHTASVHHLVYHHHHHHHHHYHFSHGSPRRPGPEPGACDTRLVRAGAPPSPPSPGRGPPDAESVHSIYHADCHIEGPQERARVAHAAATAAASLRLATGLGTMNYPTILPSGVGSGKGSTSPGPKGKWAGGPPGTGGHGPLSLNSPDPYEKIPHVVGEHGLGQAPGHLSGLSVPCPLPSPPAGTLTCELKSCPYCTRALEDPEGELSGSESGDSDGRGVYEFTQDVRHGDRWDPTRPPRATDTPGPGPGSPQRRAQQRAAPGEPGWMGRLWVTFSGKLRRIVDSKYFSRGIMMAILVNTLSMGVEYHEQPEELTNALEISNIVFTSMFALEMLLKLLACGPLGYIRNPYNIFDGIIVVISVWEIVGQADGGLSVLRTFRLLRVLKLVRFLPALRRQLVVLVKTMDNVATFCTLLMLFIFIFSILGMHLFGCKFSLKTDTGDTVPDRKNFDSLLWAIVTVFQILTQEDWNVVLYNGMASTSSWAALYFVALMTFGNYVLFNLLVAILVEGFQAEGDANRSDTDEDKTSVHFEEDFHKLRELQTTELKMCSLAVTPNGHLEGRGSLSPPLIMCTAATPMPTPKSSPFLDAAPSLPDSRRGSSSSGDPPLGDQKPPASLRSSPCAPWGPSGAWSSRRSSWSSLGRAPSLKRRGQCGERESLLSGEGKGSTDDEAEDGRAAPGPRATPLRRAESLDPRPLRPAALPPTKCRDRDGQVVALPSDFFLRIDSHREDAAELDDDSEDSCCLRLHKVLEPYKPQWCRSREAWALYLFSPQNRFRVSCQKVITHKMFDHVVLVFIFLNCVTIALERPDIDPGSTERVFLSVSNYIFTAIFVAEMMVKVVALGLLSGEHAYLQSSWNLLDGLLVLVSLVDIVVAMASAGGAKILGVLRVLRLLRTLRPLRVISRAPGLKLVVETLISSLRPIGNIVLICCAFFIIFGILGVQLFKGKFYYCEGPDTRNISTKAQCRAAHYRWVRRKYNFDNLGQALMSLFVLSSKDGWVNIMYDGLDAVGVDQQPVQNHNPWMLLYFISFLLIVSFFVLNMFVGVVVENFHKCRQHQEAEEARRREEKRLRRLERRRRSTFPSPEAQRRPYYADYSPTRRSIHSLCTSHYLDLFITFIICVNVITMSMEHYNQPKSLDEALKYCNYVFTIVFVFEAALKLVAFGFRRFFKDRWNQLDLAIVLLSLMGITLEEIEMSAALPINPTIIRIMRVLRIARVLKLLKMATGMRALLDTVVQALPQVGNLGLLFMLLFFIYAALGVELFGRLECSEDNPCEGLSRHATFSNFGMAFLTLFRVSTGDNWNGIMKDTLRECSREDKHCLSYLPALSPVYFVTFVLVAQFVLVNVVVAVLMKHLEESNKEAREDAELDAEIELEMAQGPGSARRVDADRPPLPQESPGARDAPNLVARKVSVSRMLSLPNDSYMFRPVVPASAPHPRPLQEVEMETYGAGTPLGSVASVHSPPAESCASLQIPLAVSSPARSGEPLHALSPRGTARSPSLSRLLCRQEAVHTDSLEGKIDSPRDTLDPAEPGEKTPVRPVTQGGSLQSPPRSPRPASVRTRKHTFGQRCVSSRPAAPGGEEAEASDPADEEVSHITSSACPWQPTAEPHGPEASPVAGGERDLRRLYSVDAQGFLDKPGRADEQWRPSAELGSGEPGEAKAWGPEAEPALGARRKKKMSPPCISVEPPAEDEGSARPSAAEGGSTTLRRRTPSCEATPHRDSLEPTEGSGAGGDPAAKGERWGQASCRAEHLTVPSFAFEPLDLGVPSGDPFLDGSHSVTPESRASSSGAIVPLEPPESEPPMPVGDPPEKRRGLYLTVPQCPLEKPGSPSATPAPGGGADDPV

[14] = test system: HEK293 cells stably transfected the α1H gene; test: Proliferation of HEK293 cells stably transfected with α1H; format: cell-based; settings: FIG. 5
[15] = test system: human PC3 prostate cancer cells; settings: xenografted PC3, Haverstick et al. 2000; cited from earlier work
[16] = Homo sapiens, NE = no effect at highest concentration of drug tested, read-out: prolif: IC50 for inhibition of proliferation, Jurkat
[17] = Homo sapiens, PC-3, PC3, NE = no effect at highest concentration of drug tested, read-out: prolif: IC50 for inhibition of proliferation, PC3
[18] = FIG. 6 panel B, read-out: IC50, proliferation of PC3 human prostate cancer cells

pIC50 (MDA-361 cells [1]) | pIC50 (MDA-435 cells [2]) | pIC50 (Jurkat cells [4]) | pIC50 (MDA-231 cells [5]) | pIC50 (Jurkat cells [7]; [16]) | pIC50 (LNCaP cells [8]) | pIC50 (PC3 cells [9]; [17]) | pIC50 (LNCaP cells [10]) | pIC50 (PC3 cells [11]) | pIC50 [13] | pIC50 (PC3 cells [9]; [18]) | pIC50 (Jurkat cells [7]; 48 hrs, in the absence of ionomycin, read-out: IC50 of TH-1177 for inhibition of proliferation) | pIC50 (Jurkat cells [7]; 48 hrs, in the presence of 30 uM ionomycin, read-out: IC50 of TH-1177 for inhibition of proliferation) | SMILES | pIC50 (MDA-231 cells [3]) | pIC50 (MDA-435 cells [6]) | pIC50 (MDA-361 cells [12]) | proliferation of stably transfected HEK293 cells [14] | lifespan of nude mice inoculated with human PC3 prostate cancer cells [15]
5.00 | 4.82 | 5.52 | ~4.70 | 5.43 | 5.26 | 5.00 | 4.82 | ~4.82 | – | – | – | – | COc1ccc(CCCNCCOC(c2ccccc2)c2ccc(Cl)cc2)cc1 (stereo not drawn) [Compound 3.4] | 5.40 | 5.00 | 5.40 | – | –
4.70 | 5.00 | 5.00 | 5.00 | 5.12 | 5.46 | 4.94 | 5.00 | 5.00 | – | – | – | – | COc1ccc(CCNCCOC(c2ccccc2)c2ccc(Cl)cc2)cc1 (stereo not drawn) [Compound 3.8] | 4.97 | 4.80 | 5.12 | – | –
– | – | – | – | – | – | – | – | – | 5.15 | 4.38 | – | – | COc1ccc(CCN2CCCC2COC(c2ccccc2)c2ccc(Cl)cc2)cc1 (stereo not drawn) [TH-1211] | – | – | – | – | –
5.30 | 5.00 | 5.52 | 5.00 | 5.42 | 5.80 | 5.40 | 5.52 | – | – | – | – | – | COc1ccc(CNCCOC(c2ccccc2)c2ccc(Cl)cc2)cc1 (stereo not drawn) [Compound 3.9] | 4.93 | 4.92 | 5.40 | – | –
– | – | – | – | – | – | – | – | – | – | – | – | – | COCC(=O)O[C@]1(CCN(C)CCCc2nc3ccccc3[nH]2)CCc2cc(F)ccc2[C@@H]1C(C)C [mibefradil, reference compound] | – | – | – | inhibits proliferation | –
5.22 | 5.00 | 5.52 | 5.10 | 5.52 | 5.70 | 5.05 | 5.30 | 5.00 | – | – | – | – | COc1ccc(CNCCCCOC(c2ccccc2)c2ccc(Cl)cc2)cc1 (stereo not drawn) [Compound 3.2] | 5.00 | 4.98 | 5.40 | – | –
5.00 | 4.60 | 5.00 | 5.00 | 5.40 | 5.46 | 4.96 | 5.00 | – | – | – | – | – | COc1ccc(CNCCCCCC(c2ccccc2)c2ccc(Cl)cc2)cc1 (stereo not drawn) [Compound 3.1] | 5.10 | 4.92 | 5.10 | – | –
4.60 | 5.00 | 5.15 | 5.00 | 4.30 | 4.60 | 4.48 | 5.00 | 4.52 | – | – | – | – | COc1ccc(C(O)CCCCOC(c2ccccc2)c2ccc(Cl)cc2)cc1 (stereo not drawn) [Compound 3.5] | 4.30 | 4.19 | 4.35 | – | –
– | – | – | – | – | – | – | – | – | 6.10 | 4.85 | 4.75 | 5.34 | COc1ccc(CCN2CCC[C@H]2COC(c2ccccc2)c2ccc(Cl)cc2)cc1 (stereo partly drawn) [TH-1177] | – | – | – | inhibits proliferation | significantly extended the lifespan
– | – | 4.52 | 4.52 | 4.52 | 5.15 | 4.96 | – | 4.52 | – | – | – | – | COc1ccc(CCCCNCCC(c2ccccc2)c2ccc(Cl)cc2)cc1 (stereo not drawn) [Compound 3.21] | 4.82 | 5.05 | – | – | –
< 4.00 | < 4.00 | < 4.00 | < 4.00 | < 4.00 | ~4.00 | < 4.00 | < 4.00 | < 4.00 | – | – | – | – | COc1ccc(C(=O)CCCCOC(c2ccccc2)c2ccc(Cl)cc2)cc1 (stereo not drawn) [Compound 3.6] | < 4.00 | < 4.00 | < 4.00 | – | –
